Data taken from ChEMBL document CHEMBL1151524, “Synthesis and evaluation of pyrazolo[3,4-b]quinoline ribofuranosides and their derivatives as inhibitors of oncogenic Ras” (Bioorg Med Chem Lett, 1996).

molecular target: T1, GTPase HRas (Homo sapiens, UniProt P01112); test: Inhibition of nucleotide exchange process of oncogenic Ras in vitro
T1 sequence (P01112 whole entry, looked up): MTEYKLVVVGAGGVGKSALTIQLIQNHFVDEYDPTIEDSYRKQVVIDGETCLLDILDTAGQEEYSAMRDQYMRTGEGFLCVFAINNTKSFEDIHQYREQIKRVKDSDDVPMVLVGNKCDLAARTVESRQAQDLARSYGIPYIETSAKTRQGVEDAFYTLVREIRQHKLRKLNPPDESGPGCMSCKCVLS

Point of comparison: COc1ccc2nc3c(c(C)nn3[C@H]3CN(Sc4ccccc4[N+](=O)[O-])C[C@@H](CO[Si](C)(C)C(C)(C)C)O3)c(Cl)c2c1, IC50 1 µM. Against it:
- COc1ccc2nc3c(c(C)nn3[C@H]3CN(Sc4ccc([N+](=O)[O-])cc4)C[C@@H](CO)O3)c(Cl)c2c1 — 6.7-fold higher, 6.7 µM
- COc1ccc2nc3c(c(C)nn3[C@H]3CN(S(=O)(=O)c4ccc([N+](=O)[O-])cc4)C[C@@H](CO[Si](C)(C)C(C)(C)C)O3)c(Cl)c2c1 — 5-fold higher, 5 µM
- COc1ccc2nc3c(c(C)nn3[C@H]3CN(Sc4ccc([N+](=O)[O-])cc4)C[C@@H](CO[Si](C)(C)C(C)(C)C)O3)c(Cl)c2c1 — 50-fold higher, 50 µM
- COc1ccc2nc3c(c(C)nn3[C@H]3CN(S(=O)(=O)c4ccc([N+](=O)[O-])cc4)C[C@@H](CO)O3)c(Cl)c2c1 — 8-fold higher, 8 µM
- COc1ccc2nc3c(c(C)nn3[C@H]3C=C[C@@H](O/C=C/C(=O)c4ccccc4)O3)c(Cl)c2c1 — 35-fold higher, 35 µM
- COc1ccc2nc3c(c(C)nn3[C@@H]3O[C@H](OC(O)CC(=O)c4ccccc4)[C@H]4OC(=S)O[C@H]43)c(Cl)c2c1 (stereo not given in full) — 1.5-fold higher, 1.5 µM
- COc1ccc2nc3c(c(C)nn3[C@H]3CN(Sc4ccc([N+](=O)[O-])cc4)C[C@@H](C/C=C/C(C)=O)O3)c(Cl)c2c1 — 3-fold higher, 3 µM
- COc1ccc2nc3c(c(C)nn3[C@H]3CN(Sc4ccc([N+](=O)[O-])cc4)C[C@@H](C/C=C/C(=O)c4ccccc4)O3)c(Cl)c2c1 — 7.4-fold higher, 7.4 µM
- COc1ccc2nc3c(c(C)nn3[C@H]3CN(S(=O)(=O)c4ccc(NC(C)=O)cc4)C[C@@H](CO[Si](C)(C)C(C)(C)C)O3)c(Cl)c2c1 — 27-fold higher, 27 µM
- COc1ccc2nc3c(c(C)nn3[C@H]3CN(S(=O)(=O)c4ccccc4)C[C@@H](CO[Si](C)(C)C(C)(C)C)O3)c(Cl)c2c1 — 14-fold higher, 14 µM
- COc1ccc2nc3c(c(C)nn3[C@H]3C=C[C@@H](COC(=O)c4ccccc4)O3)c(Cl)c2c1 — 80-fold higher, 80 µM
- COc1ccc2nc3c(c(C)nn3[C@@H]3O[C@H](O/C=C/C(=O)c4ccccc4)[C@@H](O)[C@H]3O)c(Cl)c2c1 — 10-fold higher, 10 µM
- COc1ccc2nc3c(c(C)nn3[C@H]3CN(S(=O)(=O)c4ccc([N+](=O)[O-])cc4)C[C@@H](C/C=C/C(=O)c4ccccc4)O3)c(Cl)c2c1 — 7-fold higher, 7 µM
- COc1ccc2nc3c(c(C)nn3[C@H]3CN(S(=O)(=O)c4ccccc4)C[C@@H](CO)O3)c(Cl)c2c1 — 12-fold higher, 12 µM
- CCOC(=O)/C=C/C[C@@H]1CN(Sc2ccccc2[N+](=O)[O-])C[C@H](n2nc(C)c3c(Cl)c4cc(OC)ccc4nc32)O1 — 16-fold higher, 16 µM
- COc1ccc2nc3c(c(C)nn3[C@H]3CN(Sc4ccccc4[N+](=O)[O-])C[C@@H](CO)O3)c(Cl)c2c1 — 14-fold higher, 14 µM
- COc1ccc2nc3c(c(C)nn3[C@@H]3O[C@H](COC(=O)c4ccco4)[C@@H](OC(=O)c4ccco4)[C@H]3OC(=O)c3ccco3)c(Cl)c2c1 — 10-fold higher, 10.5 µM
- COc1ccc2nc3c(c(C)nn3[C@@H]3O[C@H](COC(=O)c4ccccc4)[C@H]4OC(=S)O[C@H]43)c(Cl)c2c1 — 15-fold higher, 15 µM
- COc1ccc2nc3c(c(C)nn3[C@H]3CN(Sc4ccccc4[N+](=O)[O-])C[C@@H](C/C=C/C(=O)c4ccccc4)O3)c(Cl)c2c1 — 4.7-fold higher, 4.7 µM

molecular target: T1, GTPase HRas; test: Inhibition of nucleotide exchange process of oncogenic Ras at concentration 50 uM

Point of comparison: COc1ccc2nc3c(c(C)nn3[C@H]3CN(Sc4ccccc4[N+](=O)[O-])C[C@@H](C/C=C/C(C)=O)O3)c(Cl)c2c1, inhibition 88%. Against it:
- COc1ccc2nc3c(c(C)nn3[C@@H]3O[C@H](COC(C)=O)[C@@H](OC(C)=O)[C@H]3OC(C)=O)c(Cl)c2c1 — lower, 3%
- CCOC(=O)/C=C/C[C@@H]1CN(Sc2ccc([N+](=O)[O-])cc2)C[C@H](n2nc(C)c3c(Cl)c4cc(OC)ccc4nc32)O1 — lower, 64%
- COc1ccc2nc3c(c(C)nn3[C@@H]3O[C@H](COC(=O)Cc4ccccc4)[C@@H](OC(=O)Cc4ccccc4)[C@H]3OC(=O)Cc3ccccc3)c(Cl)c2c1 — lower, 62%
- COc1ccc2nc3c(c(C)nn3[C@H]3CNC[C@@H](CO)O3)c(Cl)c2c1 — lower, 0%
- COc1ccc2nc3c(c(C)nn3[C@@H]3O[C@H](COC(=O)c4ccoc4)[C@@H](OC(=O)c4ccoc4)[C@H]3OC(=O)c3ccoc3)c(Cl)c2c1 — lower, 49%
- COc1ccc2nc3c(c(C)nn3[C@@H]3O[C@H](COC(=O)c4ccccc4)[C@@H](OCc4ccccc4)[C@H]3OCc3ccccc3)c(Cl)c2c1 — lower, 53%
- COc1ccc2nc3c(c(C)nn3[C@@H]3O[C@H](OCc4ccccc4)[C@@H](OCc4ccccc4)[C@H]3OCc3ccccc3)c(Cl)c2c1 — lower, 35%
- COc1ccc(C(=O)OC[C@H]2O[C@@H](n3nc(C)c4c(Cl)c5cc(OC)ccc5nc43)[C@H](OC(=O)c3ccc(OC)cc3)[C@@H]2OC(=O)c2ccc(OC)cc2)cc1 — lower, 44%
- COc1ccc2nc3c(c(C)nn3[C@@H]3O[C@H](COC(=O)c4ccc([N+](=O)[O-])cc4)[C@@H](OC(=O)c4ccc([N+](=O)[O-])cc4)[C@H]3OC(=O)c3ccc([N+](=O)[O-])cc3)c(Cl)c2c1 — lower, 59%
- COc1ccc2nc3c(c(C)nn3[C@@H]3O[C@H](COC(=O)c4ccccc4)[C@@H](OC(C)=O)[C@H]3OC(C)=O)c(Cl)c2c1 — lower, 44%
- COc1ccc2nc3c(c(C)nn3[C@H]3C=C[C@@H](OCCC(=O)c4ccccc4)O3)c(Cl)c2c1 — lower, 25%
- COc1ccc2nc3c(c(C)nn3[C@H]3C=C[C@@H](OC(O)CC(=O)c4ccccc4)O3)c(Cl)c2c1 (stereo not given in full) — lower, 48%
- COc1ccc2nc3c(c(C)nn3[C@H]3CN(S(=O)(=O)c4ccccc4)C[C@@H](COC(=O)c4ccccc4)O3)c(Cl)c2c1 — lower, 47%
- COc1ccc2nc3c(c(C)nn3[C@@H]3O[C@H](O/C=C/C(=O)c4ccccc4)[C@H]4OC(C)(C)O[C@H]43)c(Cl)c2c1 — lower, 53%
- COc1ccc2nc3c(c(C)nn3[C@@H]3O[C@H](COC(=O)c4ccccc4)[C@@H](O)[C@H]3O)c(Cl)c2c1 — lower, 16%
- COc1ccc2nc3c(c(C)nn3[C@@H]3O[C@H](COC(=O)C(C)C)[C@@H](OC(=O)C(C)C)[C@H]3OC(=O)C(C)C)c(Cl)c2c1 — lower, 33%
- COc1ccc2nc3c(c(C)nn3[C@@H]3O[C@H](COC(=O)c4cccnc4)[C@@H](OC(=O)c4cccnc4)[C@H]3OC(=O)c3cccnc3)c(Cl)c2c1 — lower, 33%
- COc1ccc2nc3c(c(C)nn3[C@H]3CC[C@@H](COC(=O)c4ccccc4)O3)c(Cl)c2c1 — lower, 38%

molecular target: T1, GTPase HRas; test: In vitro for inhibition of nucleotide exchange process of oncogenic Ras

COc1ccc2nc3c(c(C)nn3[C@@H]3O[C@H](COC(=O)c4ccccc4)[C@@H](OC(=O)c4ccccc4)[C@H]3OC(=O)c3ccccc3)c(Cl)c2c1 showed an IC50 of 10 µM.
